One assay concerns vinculin. Put plainly: Western blots of vinculin expression, 4T1 tumor model. Format: cell-based. The following applies: CMTM4 knockout, 1 mm, 0, 3, 6 and 24 hours. The method, then:
1 mm of C10H14O3 (4-Ethoxy-3-methoxybenzyl alcohol)(28A), C9H16N2O6 (Tetrahydrouridine)(28B), or C10H14O3 (5-tert-butyl-2-methyl-3-furoic acid)(28C) was administered to control mice or CMTM4 knockouts and expression measured after 0, 3, 6, and 24 hours.
(In general: A western blot detects proteins with antibodies after separation by electrophoresis.)

The next assay has as its system IL-6. The assay is described as follows: IL-6 production (compound screening). Format: cell-based. From the text:
(§1) The initial screening was followed by the following assessments: 1) MHC 11 assay by high-throughput flow cytometry. 2) IL-6 production. 3) NF-kB promoter activity using CMTM4-expressing NF-kB/secreted embryonic alkaline phosphatase (SEAP) reporter stable cell lines using both LLC and 4T1 cells. 4) Inhibition of EGF-mediated G-CSF secretion from tumor cells. 5) Test glycolysis (FIG. 13).

The next assay deals with glycolysis. The assay is described as follows: Test glycolysis (compound screening). Format: cell-based.
From the text: as §1

The next assay relates to p-Akt/p-mTOR. Put plainly: p-Akt/p-mTOR (compound screening). Format: cell-based. How it is done: (§2) Protein samples from cells were separated on sodium dodecyl sulfate (SDS)-polyacrylamide gels and transferred to PVDF membranes. The membranes were blocked in 4% skim milk solution, incubated with the appropriate antibody, and subsequently incubated with a secondary antibody conjugated with horseradish peroxidase. The antibodies for p-NF-κBp65, NF-κBp65. EGFR, PTEN, Akt, p-Akt, mTOR, p-mTOR, S6, p-S6, Rab4, Rab5a, Rab11, Tubulin, actin, vinculin, and CMTM4 were purchased from Cell Signaling Technology, Inc. (Beverly, MA) and the antibody for Rab21 was purchased from Santa Cruz Biotechnology. The immunoreactive bands were visualized using the ECL system (Thermo Scientific). Control and CMTM4 KD cell lysates were analyzed using the proteome profiler mouse phospho-receptor tyrosine kinase array kit (R&D Systems) following the manufacturer's instructions. For immunoprecipitation, Dynabeads His-Tag isolation and pulldown kit (Life Technologies) was used. The pull-down samples were subjected to immunoblot assays.

The target of assay [1] is T1, CMTM4 (Mus musculus, UniProt Q8CJ61).
T1 construct: endogenous in cells; LLC and 4T1 are the only lines named in the screen
T1 sequence (Q8CJ61 whole entry): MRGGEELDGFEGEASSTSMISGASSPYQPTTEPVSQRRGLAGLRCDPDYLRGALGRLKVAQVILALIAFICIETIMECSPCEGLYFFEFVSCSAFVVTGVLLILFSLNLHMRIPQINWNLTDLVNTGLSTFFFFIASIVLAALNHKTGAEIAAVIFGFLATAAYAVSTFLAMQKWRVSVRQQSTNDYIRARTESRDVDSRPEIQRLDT
The assay is described as follows: CMTM4 level (compound screening). Format: cell-based. How it is done: as §2

The test system of assay [2] is CMTM4. The assay is described as follows: Western blot of CMTM4 protein in HCC827 CT cells. Format: cell-based, human. The following applies: 1 μM.
A further assay relates to MHC II. The assay is described as follows: MHC II assay by high-throughput flow cytometry (compound screening). Format: cell-based.
From the text: as §1
(In general: Flow cytometry measures light scatter and fluorescence of single cells or particles in a stream.)

Assay [3] has as its system NF-kB promoter activity in LLC cells. Put plainly: NF-kB promoter activity, CMTM4-expressing NF-kB/SEAP reporter stable LLC cells. Format: cell-based, murine.
From the text: as §1

Assay [4] relates to NF-kB promoter activity in 4T1 cells. The assay is described as follows: NF-kB promoter activity, CMTM4-expressing NF-kB/SEAP reporter stable 4T1 cells. Format: cell-based, murine.
From the text: as §1

Another assay deals with G-CSF. Put plainly: Inhibition of EGF-mediated G-CSF secretion from tumor cells. Format: cell-based. How it is done: as §1
Secretion of G-CSF was determined using ELISA kits according to the manufacturer's instructions (Life Technologies).

Read-outs that look alike come from different tables or passages of the source.

For `CCOc1ccc(CO)cc1OC` [4-Ethoxy-3-methoxybenzyl alcohol], in the assay on vinculin, the vinculin expression result is given as “significantly increased”.
On the same count and under the same terms, as for `Cc1oc(C(C)(C)C)cc1C(=O)O` [5-tert-butyl-2-methyl-3-furoic acid], the entry is “significantly increased”.
Consider `C/C=C/C(=O)O` [C4H6O2, CROTONIC ACID, CROTONIC ACID], for which the “IL-6 (%)” value in the assay on IL-6 is 4.438%. Besides, the Glycolysis result with glycolysis is given as “Inhibit”. Also, in the assay on p-Akt/p-mTOR, the p-Akt/p-mTOR entry was “Decrease”. The CMTM4 result on CMTM4 [1] is given as “No difference”.
Turning to `O=C1NC(O)CCN1[C@@H]1O[C@H](CO)[C@@H](O)[C@H]1O` (stereo partly drawn) [C9H16N2O6, Tetrahydrouridine, Tetrahydrouridine], in the assay on IL-6, the “IL-6 (%)” value is −0.1232%. The Glycolysis result in the assay on glycolysis is given as “Inhibit”. The p-Akt/p-mTOR entry in the assay on p-Akt/p-mTOR was “Decrease”. In addition, the CMTM4 entry at CMTM4 [1] was “No difference”. In the assay on CMTM4 [2], the CMTM4 protein expression entry is given as “decreased”. In addition, the vinculin expression entry with vinculin is on record as “significantly increased”.
Consider `OC[C@H]1O[C@@H](n2cnc3c(O)ncnc32)[C@H](O)[C@@H]1O` [C10H12N4O5, Inosine, Inosine], for which, in the assay with IL-6, the “IL-6 (%)” value is on record as −9.437%. In addition, the Glycolysis result in the assay on glycolysis is “Inhibit”. Further, the CMTM4 entry on CMTM4 [1] was “No difference”. In the assay on CMTM4 [2], the CMTM4 protein expression result is listed as “decreased”.
As for `Cc1ccccc1OCC(O)CO` (stereo not drawn) [C10H14O3, Mephenesin, Mephenesin], the “IL-6 (%)” value in the assay on IL-6 worked out at 0.5625%. Also, the Glycolysis entry in the assay with glycolysis is listed as “Inhibit”. Also, the p-Akt/p-mTOR result with p-Akt/p-mTOR is “Decrease”. Also, the CMTM4 result on CMTM4 [1] was “No difference”.
In the case of `N#Cc1cn([C@@H]2O[C@H](CO)[C@@H](O)[C@H]2O)c2ncnc(N)c12` [C12H13N5O4, Toyocamycin, Toyocamycin], the “IL-6 (%)” value with IL-6 is reported as −3.717%. Also, in the assay with glycolysis, the Glycolysis entry is “Inhibit”. Besides, the p-Akt/p-mTOR entry in the assay with p-Akt/p-mTOR is listed as “Decrease”. Further, at CMTM4 [1], the CMTM4 result was “No difference”.
`C[C@H]1O[C@H](O[C@H]2[C@H](O)[C@@H](O)[C@@H](O)[C@H](O)[C@@H]2O)[C@@H](N)C[C@@H]1NC(=N)C(=O)O` [C14H25N3O9, Kasugamycin, Kasugamycin]: the “MHC II (%)” value in the assay with MHC II amounted to 483.4%. In addition, the “IL-6 (%)” value with IL-6 was determined as 1.934%. In addition, the “NF-kB (%)-LLC” value in assay [3] was found to be 46.83%. Further, in assay [4], the “NF-kB (%)-4T1” value was 44.19%. The “G-CSF (%)” value in the assay with G-CSF was determined as 66.41%. In addition, the Glycolysis result in the assay with glycolysis was “Inhibit”. The p-Akt/p-mTOR result with p-Akt/p-mTOR is “Decrease”. Besides, the CMTM4 result at CMTM4 [1] was “No difference”.
On to `COc1cc(-c2oc3cc(O)cc(O)c3c(=O)c2O)ccc1O` [C16H12O7, Isorhamnctin, Isorhamnetin], for which, in the assay on IL-6, the “IL-6 (%)” value is −11.581%. In addition, in the assay on glycolysis, the Glycolysis result was “Inhibit”. The p-Akt/p-mTOR result with p-Akt/p-mTOR is “Decrease”. For the same compound, at CMTM4 [1], the CMTM4 result is reported as “No difference”.
Taken in the same sequence, the figures for `COc1cc(O)c2c(=O)c(O)c(-c3ccc(O)c(O)c3)oc2c1` [C16H12O7, Rhamnetin, Rhamnetin] were −5.243%, “Inhibit”, “Decrease” and “No difference”.
On the same counts, the results for `CO[C@H]1Nc2c(ccc(C)c2O)C(=O)N2C=C(/C=C/C(N)=O)C[C@@H]12` [C17H19N3O4, Anthramycin methyl ether, Anthramycin methyl ether] are −1.982%, “Inhibit”, “Decrease” and “No difference”.
On the same counts, the results for `O=C(/C=C/c1ccc(O)c(O)c1)O[C@H](Cc1ccc(O)c(O)c1)C(=O)O` [C18H16O8, Rosmarinic Acid, Rosmarinic Acid] are −0.1232%, “Inhibit”, “Decrease” and “No difference”.
For the compound `CCc1cccc2c1c(O)c(C(=O)N(CC)c1ccccc1)c(=O)n2C` [C21H22N2O3, Paquinimod, Paquinimod], in the assay on MHC II, the “MHC II (%)” value came to 520.6%. In addition, in the assay with IL-6, the “IL-6 (%)” value is given as −0.809%. Moreover, the “NF-kB (%)-LLC” value in assay [3] (LLC reporter cells) is on record as 32.6%. Further, the “NF-kB (%)-4T1” value in assay [4] (4T1 reporter cells) worked out at 46.87%. Further, the “G-CSF (%)” value in the assay on G-CSF (EGF-mediated secretion) worked out at 3.464%. In addition, in the assay with glycolysis, the Glycolysis result was “Inhibit”. The p-Akt/p-mTOR result in the assay with p-Akt/p-mTOR is listed as “Decrease”. In addition, at CMTM4 [1], the CMTM4 entry was “No difference”.
For `CC[C@]12CCCN3CCc4c(n(c5ccccc45)[C@@](O)(C(=O)OC)C1)[C@@H]32` [C21H26N2O3, Vincamine, Vincamine], in the assay on IL-6, the “IL-6 (%)” value was 5.815%. In the assay on glycolysis, the Glycolysis entry is reported as “Inhibit”. Moreover, the p-Akt/p-mTOR result in the assay on p-Akt/p-mTOR was “No difference”. In addition, the CMTM4 entry on CMTM4 [1] was “Decrease”.
For `CCCCC1CCCCCCc2[nH]c(/C=C3\N=C(c4ccc[nH]4)C=C3OC)cc21.Cl` (stereo not drawn) [C25H33N3O•ClH, Butylcycloheptylprodiginine Hydrochloride], the “MHC II (%)” value in the assay on MHC II came out at 426.2%. Also, the “IL-6 (%)” value with IL-6 is listed as −6.005%. For the same compound, the “NF-kB (%)-LLC” value in assay [3] (LLC reporter cells) is 53.61%. Also, the “NF-kB (%)-4T1” value in [4] (4T1 reporter cells) came out at 45.8%. Also, the “G-CSF (%)” value in the assay with G-CSF (EGF-mediated secretion) came out at 4.236%. In addition, in the assay with glycolysis, the Glycolysis result is “Inhibit”. In addition, the CMTM4 result on CMTM4 [1] is listed as “Decrease”.
Regarding `C[C@@H]1C[C@@H]2CCCC(O)=C2C(=O)O1` [Compound C10H14O3, Ramulosin], in the assay with MHC II, the “MHC II (%)” value was 340.5%. Further, the “IL-6 (%)” value with IL-6 is −0.1232%. The “NF-kB (%)-LLC” value in assay [3] (LLC reporter cells) stood at 34.35%. Also, in assay [4] (4T1 reporter cells), the “NF-kB (%)-4T1” value came out at 42.04%. For the same compound, the “G-CSF (%)” value in the assay on G-CSF (EGF-mediated secretion) came out at 3.85%. For the same compound, the Glycolysis entry in the assay on glycolysis was “Inhibit”. The p-Akt/p-mTOR entry with p-Akt/p-mTOR is given as “Decrease”. For the same compound, the CMTM4 entry at CMTM4 [1] was “No difference”.
Take `Cc1c2ccncc2c(C)c2c1[nH]c1ccccc12` [Ellipticine]: the “IL-6 (%)” value in the assay with IL-6 is recorded as −15.7288%. Further, the Glycolysis result in the assay with glycolysis is “Inhibit”. Further, the p-Akt/p-mTOR entry with p-Akt/p-mTOR is recorded as “Decrease”. Besides, the CMTM4 entry on CMTM4 [1] is “No difference”. Further, the CMTM4 protein expression entry with CMTM4 [2] is reported as “decreased”.
For `COc1ccc2c3c([nH]c2c1)[C@H](C=C(C)C)N1C(=O)[C@@H]2CCCN2C(=O)[C@@H]1C3` [Fumitremorgin C], the “MHC II (%)” value with MHC II amounted to 5071%. Further, in the assay on IL-6, the “IL-6 (%)” value stood at 10.85%. For the same compound, in [3], the “NF-kB (%)-LLC” value is recorded as 42.89%. Moreover, the “NF-kB (%)-4T1” value in [4] worked out at 49.73%. In addition, the “G-CSF (%)” value in the assay on G-CSF came to 6.939%. For the same compound, the Glycolysis result in the assay with glycolysis is recorded as “Inhibit”. Also, the p-Akt/p-mTOR result in the assay on p-Akt/p-mTOR is “Decrease”. In addition, on CMTM4 [1], the CMTM4 entry is “No difference”.
With “Lobophorin F [C54H78N2O17, Lobophorin F]”, the “MHC II (%)” value with MHC II was 360.5%. Further, the “IL-6 (%)” value in the assay on IL-6 is −12.2043%. The “NF-kB (%)-LLC” value in assay [3] (LLC reporter cells) is recorded as 37.64%. In assay [4] (4T1 reporter cells), the “NF-kB (%)-4T1” value turned out to be 40.07%. Moreover, in the assay with G-CSF (EGF-mediated secretion), the “G-CSF (%)” value is 1.147%. Besides, the Glycolysis result in the assay on glycolysis is given as “Inhibit”. For the same compound, the p-Akt/p-mTOR result with p-Akt/p-mTOR was “Decrease”. In addition, on CMTM4 [1], the CMTM4 entry was “Decrease”.
